The record followed here is US20210259954A1, “CILIA-TARGETING NANOPARTICLES” (Chapman University, priority 2019, published 2021).

Data set [1] deals with p-ERK. As to the kind of experiment: Immunoblotting of phosphorylated ERK. The data set is classed as cell-based. As for the experimental part: Immunoblotting. […] Samples were kept on ice during sonication to prevent overheating. Samples were then centrifuged at 15,000 rpm for 20 min, and the supernatants were collected and subjected to protein quantification. The PAGE (polyacrylamide gel electrophoresis) on 6-10% SDS gels was performed followed by semi-dry transfer to PVDF membranes using a Bio-Rad Trans-Blot Turbo Transfer System and detection using antibodies against t-ERK (1:1,000), p-ERK (1:1,000), NOS (1:200), and GAPDH (1:2,000) (Cell Signaling Technology). Blots were scanned with both calorimetry to image molecular markers and chemiluminescence to capture the protein signal intensity using a Bio-Rad imager.
On the technique in general: In western blotting, separated proteins are transferred to a membrane and probed.

Data set [2] concerns primary cilia. As to the kind of experiment: Ca2+ and NO imaging under fluid shear stress (Example 1). It is filed as cell-based. To be noted: fluid shear 0.5 dyn/cm^2, vs corresponding controls. As to the method:
Ca^2+ and NO Imaging. For monolayer cell populations, intracellular measurements were obtained. […] After washed to remove excess Fura-2 AM, cytosolic Ca^2+ images were captured every second by recording Ca^2+-bound Fura-2 AM excitation fluorescence at 340/380 nm and emission at 510 nm. For intracellular nitric oxide (NO) measurements, the cells were incubated for 30 minutes at 37° C. with 20 μM DAF-FM (Cayman Chemicals). NO was then measured every second at the excitation and emission wavelengths of 495 and 515 nm, respectively. The cells were placed in PBS during the experiments and observed with a Nikon Eclipse Ti microscope. Fluid shear stress was then applied to cells through InsTech P720 peristaltic pumps with an inlet and outlet setup. The fluid was perfused through cell monolayers at a sub-minimal shear stress of 0.5 dyn/cm^2.
In single-cell studies, cells were grown on 2% Formvar® and transfected with the Ca^2+ fluorescence reporter 5HT6-mCherry-G-GECO1.0 (Addgene) using the JetPrime transfection reagent (Polyplus transfection). The shear stress ranged from 0.01-1.0 dyn/cm^2 and was accurately measured and controlled at all times. […] For these experiments, none of the CT-NPs contained AF594 dye to avoid interference with the mCherry signal. Confocal laser scanning microscopy in fast-scan mode was used to avoid potential excessive photo bleaching. […]

Data set [3] concerns Pkd2 zebrafish. As to the kind of experiment: Pkd2 morphant zebrafish ciliopathy model (Example 1). It is filed as in vivo. As to the method: Animal Studies. All animal procedures were performed according to the University of California Irvine or Chapman University Animal Care and Use Committee Guidelines. To eliminate biases and subjective analyses, all animal studies were performed by double-blinded operators. Wild-type zebrafish AB strains were obtained from the Zebrafish International Resource Center. Embryos were injected with 1 mM morpholino oligos (GeneTools) at the 1-2 cell stage and cultured at 28.5° C. in sterile egg water. The following morpholino sequences were used: control scrambled MO: 5′-CCTCTTACCTCAGTTACAATTTATA-3′ (SEQ ID NO:1), Pkd2: 5′-AGGACGAACGCGACTGGGCTCATC-3′ (SEQ ID NO:2). The cardiac function was assessed by placing zebrafish on their dorsal axis to examine the relative locations of the ventricle and bulbus arteriosus, blood circulation and the heartbeat. Measurements of blood flow characteristics and heart parameters were performed using a Nikon Eclipse Ti microscope. NIS-Elements High Content AR 4.30.02 (Nikon) was used for the live tracking of the speed and acceleration of a single blood cell.

The test system of data set [4] is primary cilia. As to the kind of experiment: In vitro cilia length, immunocytochemistry (Example 2). It is filed as cell-based, porcine. To be noted: 16 h of treatment. As for the experimental part: Immunocytochemistry and confocal microscopy. For the in vitro cilia length measurements, cells were grown on the Formvar® polymer, as mentioned above. […] Fenoldopam-alone was also used as another control. […] An antibody against acetylated-α-tubulin (1:10,000 dilution, Sigma-Aldrich) and the secondary antibodies were also diluted in 10% FBS to decrease the background florescence; a FITC-conjugated secondary antibody (1:1000; Pierce) was used. Cells were then washed three times for 5 minutes each with cacodylate buffer and sealed with mounting media containing DAPI (Vector Laboratories). […] Images were processed using NIS-Elements High Content AR 4.30.02 (Nikon). Automated image acquisition (ND acquisition) was conducted under the same ×60 magnification (selected area capturing option) field and Z-stack (0.1 μm slices) settings to create a 3D video. All imaging and video acquisition times and the microscope stage were automatically controlled (XY, XZ and YZ) by an automated perfect focusing system (PFS). The in vivo cilia length measurements and NP localizations in the zebrafish and mouse tissues were performed using the same method.

Data set [5] deals with Tie2Cre⋅Pkd2^flox/flox mice. As to the kind of experiment: Endothelia-specific Pkd2 knockout hypertensive mouse model, 8-week treatment (Example 1). The data set is classed as in vivo. As to the method: One-week-old Tie2Cre⋅Pkd2^WT/WT (with cre activation; control group) or Tie2Cre⋅Pkd2^flox/flox (without cre activation; control group), and Tie2Cre⋅Pkd2^flox/flox (with cre activation; experimental group) mice were injected intra-peritoneally with 5 μg/μL tamoxifen every day for five consecutive days. […] The overall process for the preparation of the final nano-formulation for the animal studies included the following steps. The lyophilized antibody conjugated and drug-loaded CT-DAu-NPs or CT-PLGA-NP powders were first brought to the room temperature from a storage at −50° C. […] The formulations were mixed by vortex for 2 minutes followed by filtration of 0.2 μm. […] The mice were treated every 72 hours with different NPs for 8 weeks. Blood pressure from four-week-old mice was taken with the non-invasive tail-cuff method using the CODA system (Kent Scientific). Blood pressure was measured twice daily for the duration of the study after the initial three days of acclimating each mouse to the cuff. At the end of the 12 weeks of treatment, the hematology parameters, including the blood urea nitrogen (BUN) and plasma nitrate/nitrite measurements, were examined. BUN assays were conducted using a calorimetric kit (Arbor Assays). Plasma nitrate/nitrite concentrations were quantified using a nitrate/nitrite assay kit (Cayman). All steps were followed according to the manufacturer's instructions. […] Then, the tissues were dehydrated using buffered ethanol, and xylene. Finally, the tissues were embedded in wax, sectioned (4 μm, Microtome, HM-3555, Thermo Scientific) and were subsequently stained with standard hematoxylin and eosin (H&E). The pathology slices were observed and imaged using a KEYENCE-BZ-X710 microscope. Mouse heart sections were stained with Masson's Trichrome to detect fibrosis using a Masson's Trichrome Stain Kit (Polysciences, Inc.).

As for `Oc1ccc(C2CNCCc3c2cc(O)c(O)c3Cl)cc1` (stereo not shown) [Fenoldopam, fenoldopam], in data set [1], the ERK phosphorylation result was “increased ERK phosphorylation”. In data set [2], the NO biosynthesis result was “significantly increased” and the “cytosolic Ca^2+” value was “significantly increased cytosolic Ca^2+”. Further, in data set [3], the “tolerability of bolus injection” value was “tachycardia-associated death”. The cilia length result in data set [4] is “increased the cilia length”. Moreover, the “cilia length in aorta and heart” value in data set [5] (24 or 72 hours after treatment) was “increased by CTNDDS but not fenoldopam”. In addition, in data set [5] (Pkd2 mice), the “blood urea nitrogen (BUN)” value was “could not be corrected” and the plasma nitrate/nitrite result was “could not be corrected”. Further, the “acute blood pressure and heart rate” value in data set [5] (Pkd2 mice, 10-minute infusion) is reported as “significantly decreased blood pressure followed by reflex tachycardia”. The “blood pressure (SBP, MAP)” value in data set [5] (hypertensive Pkd2 mice, every 3 days for 8 weeks) is on record as “no long-term effect”.
